Data as given in patent US20210187130A1, “PET RADIOPHARMACEUTICALS FOR NON-INVASIVE EVALUATION OF HIF-2alpha” (THE BOARD OF REGENTS OF THE UNIVERSITY OF TEXAS SYSTEM, priority 2019, published 2021).
Entries after “also recorded” stand apart in the source; their conditions may differ.

Columns and labels:
ccRCC = assay: Phase 1 clinical trial in patients with ccRCC; type: in vivo
Source text: The drug was remarkably well tolerated and a maximal tolerated dose (MTD) was not reached. […] The drug was also highly specific, and high-grade adverse effects were on-target, and expected, such as anemia (HIF-2 is known to regulate erythropoietin, and the effect could be overcome by exogenous erythropoietin administration). While the patient cohort evaluated had been extensively pretreated (typically ≥4 prior lines), activity of the inhibitor was still observed. Among 51 patients treated in the study at various dose levels, there was 1 complete response (CR), 6 partial response (PR), and 13 patients who remained on the study without progression beyond a year (FIG. 5). Overall, 42% of patients remained without progression for at least 4 months. […] Those data illustrated that even in highly pretreated RCC patients the HIF-2 Inhibitor was able to remain active.
The Phase I trial was accompanied by a companion study involving imaging and tissue acquisition.

ccRCC TGs = assay: PT2399 in RCC tumorgraft (patient-derived xenograft) platform; type: in vivo, mice
Description: (§1) This compound was evaluated in over 250 mice implanted with RCCs from 22 patients. […] This was also observed clinically.
Tumor samples collected fresh from kidney cancer surgeries were implanted orthotopically (in the kidney) of immunocompromised mice (NOD/SCID) within 3 hours. The samples were implanted without disaggregation or any additives, and it was previously shown that these tumorgrafts retained the histology, gene expression, DNA copy number alterations, mutations, and treatment responsiveness of the patient tumors. This platform of human RCC tumorgraft models was used to validate HIF-2α as a target in ccRCC (FIGS. 1 and 2). […] This same platform was used to evaluate the uptake of [^11C]PT2385 by ccRCC tumorgrafts expressing HIF-2α by PET imaging.

[1] = Tolerance (body weight) of tumorgraft-bearing mice; type: in vivo; conditions: sunitinib at doses reproducing patient exposures
Description: as §1

[2] = among 51 patients, various dose levels

| Compound | complete response (CR), number of patients (ccRCC; [2]) | partial response (PR), number of patients (ccRCC; [2]) | patients remaining on study without progression beyond a year (ccRCC; [2]) | serious adverse effects requiring treatment discontinuation (ccRCC; any patient) | maximal tolerated dose (MTD) (ccRCC; dose escalation and dose expansion cohorts) | dose-limiting toxicities (ccRCC; human, in vivo) | high-grade adverse effects (on-target) (ccRCC; human, in vivo) | patients without progression for at least 4 months (ccRCC; overall) [%] | activity in HIF-2α deficient tumors (ccRCC; preliminary studies of patient tumor samples) | ccRCC tumorgrafts responsive (sensitive lines) (ccRCC TGs; RCCs from 22 patients, over 250 mice) | number of intermediate tumorgraft lines (ccRCC TGs; of all 22 tumorgraft lines) | number of resistant tumorgraft lines (ccRCC TGs; of all 22 tumorgraft lines) | number of sensitive tumorgraft lines (ccRCC TGs; of all 22 tumorgraft lines) | activity compared with sunitinib (ccRCC TGs; tumorgraft growth, sunitinib standard of care at the time) | body weight change of treated mice [1] |
| --- | --- | --- | --- | --- | --- | --- | --- | --- | --- | --- | --- | --- | --- | --- | --- |
| CS(=O)(=O)c1ccc(Oc2cc(F)cc(C#N)c2)c2c1[C@H](O)C(F)(F)C2 [PT2385] | 1 | 6 | 13 | no serious adverse effects requiring treatment discontinuation | not reached | no dose-limiting toxicities | anemia | 42 | no activity | – | – | – | – | – | – |
| N#Cc1cc(F)cc(Oc2ccc(S(=O)(=O)C(F)F)c3c2CC(F)(F)[C@H]3O)c1 [PT2399] | – | – | – | – | – | – | – | – | – | approximately 50% | 5 | 7 | 10 | more active than Sunitinib; also recorded: more effective than sunitinib | did not |
| CCN(CC)CCNC(=O)c1c(C)[nH]c(/C=C2\C(=O)Nc3ccc(F)cc32)c1C [sunitinib] | – | – | – | – | – | – | – | – | – | – | – | – | – | – | lost weight |
